Reference: patent US20250288573A1 (H. LEE MOFFITT CANCER CENTER AND RESEARCH INSTITUTE, INC., priority 2018, published 2025)
Like-named read-outs stand apart in the source and are kept apart here.

Legend:
CRBN = target: T1, CRBN (Homo sapiens, UniProt Q96SW2); assay: Western blot for expression of CRBN relative to vinculin in human T cells (CRBN degradation); format: cell-based; details: for remaining activity at 10 µM / remaining activity at 0.01 µM: read-out: Relative Density of CRBN (% of DMSO); for remaining activity at 0.01 µM: 24 h; for CRBN Degradation ** (WB): grade (+) to (++++) or words, key not given
T1 construct: endogenous in cells; host or cells: primary human T cells / CD8+ T cells from peripheral blood
T1 sequence (Q96SW2 whole entry): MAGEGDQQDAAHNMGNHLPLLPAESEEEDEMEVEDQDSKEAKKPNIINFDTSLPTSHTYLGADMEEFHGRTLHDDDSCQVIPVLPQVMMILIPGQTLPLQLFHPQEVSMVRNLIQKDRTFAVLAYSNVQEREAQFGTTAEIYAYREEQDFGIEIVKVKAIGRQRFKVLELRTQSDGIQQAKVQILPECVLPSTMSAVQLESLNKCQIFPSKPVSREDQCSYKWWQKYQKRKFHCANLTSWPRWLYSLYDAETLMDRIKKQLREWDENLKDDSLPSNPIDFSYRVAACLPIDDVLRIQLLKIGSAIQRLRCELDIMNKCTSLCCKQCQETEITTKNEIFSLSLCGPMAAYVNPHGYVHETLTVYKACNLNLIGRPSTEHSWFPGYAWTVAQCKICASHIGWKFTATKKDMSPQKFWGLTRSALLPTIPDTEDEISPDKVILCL
Excerpt: Bortez=bortezomib; MG132=proteasome inhibitor; MLN4924=NEDD8 inhibitor.
This assay is a standard Western blot assay for expression of CRBN relative to vinculin.
[…] 0.1 percent DMSO was used as a vehicle control.

cereblon (CRBN) = cereblon (CRBN) (Homo sapiens, UniProt Q96SW2); assay: Kd and % inhibition from FI; format: binding; details: for inhibition at 200 µM: read-out: % inhibition @ 200 uM from *FI
Chain of cereblon (CRBN) (Q96SW2 whole entry, species assumed): as the sequence (Q96SW2 whole entry) above

[1] = cell does not state FI or ITC, read-out: Kd (A) FI/ITC
[2] = FI, read-out: Kd (FI) (converted)

Compound | remaining activity at 10 µM (CRBN; 10uM) [%] | remaining activity at 0.01 µM (CRBN; 10nM, human T cells, 24 hours) [%] | inhibition at 200 µM (cereblon (CRBN)) [%] | also measured
O=C1CCC(N2C(=O)c3cccc(NC(=O)CCCCCCCCC(=O)Nc4cccc5c4C(=O)N(C4CCC(=O)NC4=O)C5=O)c3C2=O)C(=O)N1 (stereo not shown) [EC1-132, N^1,N^10-bis(2-(2,6-Dioxopiperidin-3-yl)-1,3-dioxoisoindolin-4-yl)decanediamide] | 33 | 33.4 |  | % inhibition @ 200 uM from *FI (cereblon (CRBN)): n.b.
Cc1sc2c(c1C)C(c1ccc(Cl)cc1)=N[C@H](CC(=O)NCCCCC(=O)N[C@H]1CC(=O)NC1=O)c1nnc(C)n1-2 [XS01-089] |  |  |  | Kd (cereblon (CRBN); [1]): 353 ± 108 µM
O=C(/C=C/c1cccc2c1CN(C1CCC(=O)NC1=O)C2=O)NCCOCCNC(=O)/C=C/c1cccc2c1CN(C1CCC(=O)NC1=O)C2=O (stereo not shown) [SM3-006, (2E,2′E)-N,N′-(Oxybis(ethane-2,1-diyl))bis(3-(2-(2,6-dioxopiperidin-3-yl)-1-oxoisoindolin-4-yl)acrylamide)] | 85.3 | 110 | 72.9 ± 1.19 | Kd (cereblon (CRBN); [2]): 15.2 ± 1.52 µM
O=C(CCc1cccc2c1CN(C1CCC(=O)NC1=O)C2=O)NCCOCCOCCOCCNC(=O)CCc1cccc2c1CN(C1CCC(=O)NC1=O)C2=O (stereo not shown) [SM3-011, N,N′-(((Oxybis(ethane-2,1-diyl))bis(oxy))bis(ethane-2,1-diyl))bis(3-(2-(2,6-dioxopiperidin-3-yl)-1-oxoisoindolin-4-yl)propanamide)] | 85.4 | 102 | 73.39 ± 0.71 | Kd (cereblon (CRBN); [2]): 14.8 ± 1.08 µM
O=C1CCC(N2Cc3c(CCCOCCOCCOCCCc4cccc5c4CN(C4CCC(=O)NC4=O)C5=O)cccc3C2=O)C(=O)N1 (stereo not shown) [SM2-129, 3,3′-((((Oxybis(ethane-2,1-diyl))bis(oxy))bis(propane-3,1-diyl))bis(1-oxoisoindoline-4,2-diyl))bis(piperidine-2,6-dione)] | 12.4 | 53.6 | 76.2 ± 1.54 | Kd (cereblon (CRBN); [2]): 11.1 ± 0.58 µM
O=C1CCC(N2Cc3c(NC(=O)[C@H]4CC[C@H](C(=O)Nc5cccc6c5CN(C5CCC(=O)NC5=O)C6=O)CC4)cccc3C2=O)C(=O)N1 (stereo partly drawn) [EC1-154, (Trans)-N^1,N^4-Bis(2-(2,6-dioxopiperidin-3-yl)-1-oxoisoindolin-4-yl)cyclohexane-1,4-dicarboxamide] |  |  | 18.4 ± 77 | remaining activity at 0.01 µM (CRBN): 103%; remaining activity at 10 µM (CRBN): 44.2%
O=C1CCC(N2C(=O)c3cccc(NC(=O)CCCCCCCC(=O)Nc4cccc5c4C(=O)N(C4CCC(=O)NC4=O)C5=O)c3C2=O)C(=O)N1 (stereo not shown) | 6.19 | 29.8 |  | % inhibition @ 200 uM from *FI (cereblon (CRBN)): n.b
O=C(CCc1cccc2c1CN(C1CCC(=O)NC1=O)C2=O)NCCOCCOCCNC(=O)CCc1cccc2c1CN(C1CCC(=O)NC1=O)C2=O (stereo not shown) [SM3-005, N,N′-((Ethane-1,2-diylbis(oxy))bis(ethane-2,1-diyl))bis(3-(2-(2,6-dioxopiperidin-3-yl)-1-oxoisoindolin-4-yl)propanamide)] | 91.1 | 80.6 | 72.8 ± 1.38 | Kd (cereblon (CRBN); [2]): 15 ± 0.97 µM
O=C1CCC(N2C(=O)c3cccc(NC(=O)[C@H]4CC[C@@H](C(=O)Nc5cccc6c5C(=O)N(C5CCC(=O)NC5=O)C6=O)CC4)c3C2=O)C(=O)N1 (stereo partly drawn) [EC1-133, (cis)-N^1,N^4-bis(2-(2,6-Dioxopiperidin-3-yl)-1,3-dioxoisoindolin-4-yl)cyclohexane-1,4-dicarboxamide] | 10.3 | 119 |  | % inhibition @ 200 uM from *FI (cereblon (CRBN)): n.b.
O=C1CCC(N2Cc3c(C#CCCCCCCC#Cc4cccc5c4CN(C4CCC(=O)NC4=O)C5=O)cccc3C2=O)C(=O)N1 (stereo not shown) [EC2-086, 3,3′-(Deca-1,9-diyne-1,10-diylbis(1-oxoisoindoline-4,2-diyl))bis(piperidine-2,6-dione)] | 10.3 |  |  | Kd (cereblon (CRBN); [1]): 86.5 ± 25.3 µM
O=C(/C=C/c1cccc2c1CN(C1CCC(=O)NC1=O)C2=O)NCCOCCOCCNC(=O)/C=C/c1cccc2c1CN(C1CCC(=O)NC1=O)C2=O (stereo not shown) [SM3-003, (2E,2′E)-N,N′-((ethane-1,2-diylbis(oxy))bis(ethane-2,1-diyl))bis(3-(2-(2,6-dioxopiperidin-3-yl)-1-oxoisoindolin-4-yl)acrylamide)] | 102 | 125 | 72 ± 0.8 | Kd (cereblon (CRBN); [2]): 14.3 ± 0.05 µM
O=C1CCC(N2Cc3c(OCc4ccc(CN5CCN(Cc6ccc(COc7cccc8c7CN(C7CCC(=O)NC7=O)C8=O)cc6)CC5)cc4)cccc3C2=O)C(=O)N1 (stereo not shown) [EC1-168.MS] | 107 |  |  | Kd (A) FI/ITC (cereblon (CRBN); cell does not state FI or ITC): insoluble
O=C1CCC(N2Cc3c(NC(=O)CCCCCCC(=O)Nc4cccc5c4CN(C4CCC(=O)NC4=O)C5=O)cccc3C2=O)C(=O)N1 (stereo not shown) [EC1-150, N^1,N^8-Bis(2-(2,6-dioxopiperidin-3-yl)-1-oxoisoindolin-4-yl)octanediamide] | 6.33 | 99.3 | 57.2 ± 10 | Kd (cereblon (CRBN); [2]): 18.3 ± 1.54 µM
O=C1CCC(N2C(=O)c3cccc(NC(=O)CCCCCC(=O)Nc4cccc5c4C(=O)N(C4CCC(=O)NC4=O)C5=O)c3C2=O)C(=O)N1 (stereo not shown) [EC1-119, N^1,N^7-bis(2-(2,6-Dioxopiperidin-3-yl)-1,3-dioxoisoindolin-4-yl)heptanediamide] | 4.91 | 30.5 | 18 ± 20 | 
O=C1CCC(NC(=O)c2cccc(NC(=O)CCCCCCC(=O)Nc3cccc(C(=O)NC4CCC(=O)NC4=O)c3)c2)C(=O)N1 (stereo not shown) [XS01-050, N^1,N^8-Bis(3-((2,6-dioxopiperidin-3-yl)carbamoyl)phenyl)octanedimide] | 20 | 168 |  | 
Cc1sc2c(c1C)C(c1ccc(Cl)cc1)=N[C@H](CC(=O)NCCCCC(=O)NC1CCC(=O)NC1=O)c1nnc(C)n1-2 (stereo partly shown) [EC2-092] |  |  |  | Kd (cereblon (CRBN); [1]): 226 ± 21.6 µM
Cc1nc2cccc(NC(=O)Cn3cc(CCC(=O)Nc4cccc5c4CN(C4CCC(=O)NC4=O)C5=O)nn3)c2c(=O)n1C1CCC(=O)NC1=O (stereo not shown) [XS01-127, N-(2-(2,6-Dioxopiperidin-3-yl)-1-oxoisoindolin-4-yl)-3-(1-(2-((3-(2,6-dioxopiperidin-3-yl)-2-methyl-4-oxo-3,4-dihydroquinazolin-5-yl)amino)-2-oxoethyl)-1H-1,2,3-triazol-4-yl)propanamide] | 175 | 228 |  | 
Cc1ncsc1-c1ccc(CNC(=O)[C@@H]2C[C@@H](O)CN2C(=O)[C@@H](NC(=O)COCCOCCOCCOCCCc2cccc3c2CN(C2CCC(=O)NC2=O)C3=O)C(C)(C)C)cc1 (stereo partly drawn) [SR3-108, (2S,4R)-1-((2S)-2-(tert-Butyl)-18-(2-(2,6-dioxopiperidin-3-yl)-1-oxoisoindolin-4-yl)-4-oxo-6,9,12,15-tetraoxa-3-azaoctadecanoyl)-4-hydroxy-N-(4-(4-methylthiazol-5-yl)benzyl)pyrrolidine-2-carboxamide] |  |  |  | Kd (cereblon (CRBN); [2]): 13.6 ± 1.51 µM
O=C1CCC(N2Cc3c(C#CCCCCCCCC(=O)Nc4cccc5c4CN(C4CCC(=O)NC4=O)C5=O)cccc3C2=O)C(=O)N1 (stereo not shown) [EC2-100, N,10-bis(2-(2,6-Dioxopiperidin-3-yl)-1-oxoisoindolin-4-yl)dec-9-ynamide] | 32.2 | 55.5 |  | 
Cc1nc2cccc(NC(=O)CCCCCCCC(=O)Nc3cccc4nc(C)n(C5CCC(=O)NC5=O)c(=O)c34)c2c(=O)n1C1CCC(=O)NC1=O (stereo not shown) [MA10-086, N1,N9-bis(3-(2,6-Dioxopiperidin-3-yl)-2-methyl-4-oxo-3,4-dihydroquinazolin-5-yl)nonanediamide] | 71 | 138 |  | 
O=C1CCC(NC(=O)c2cccc(NC(=O)CCCCCCCCC(=O)Nc3cccc(C(=O)NC4CCC(=O)NC4=O)c3)c2)C(=O)N1 (stereo not shown) [XS01-075, N^1,N^10-Bis(3-((2,6-dioxopiperidin-3-yl)carbamoyl)phenyl)decanediamide] | 63.4 |  |  | 
Cc1nc2c(NC(=O)c3ccc(C(=O)Nc4cccc5c(=O)n(C6CCC(=O)NC6=O)c(C)nc45)cc3)cccc2c(=O)n1C1CCC(=O)NC1=O (stereo not shown) [XS01-059] | 356 | 69.2 |  | CRBN Degradation ** (WB) (CRBN): No Degradation
O=C1CCC(N2Cc3c(CCCCCCCCCC(=O)Nc4cccc5c4CN(C4CCC(=O)NC4=O)C5=O)cccc3C2=O)C(=O)N1 (stereo not shown) [EC2-102, N,10-bis(2-(2,6-Dioxopiperidin-3-yl)-1-oxoisoindolin-4-yl)decanamide] | 25.2 | 58.9 |  | 
Cc1nc2cccc(CCc3ccc(CCc4cccc5nc(C)n(C6CCC(=O)NC6=O)c(=O)c45)cc3)c2c(=O)n1C1CCC(=O)NC1=O (stereo not shown) [XS01-038, 3,3′-((1,4-Phenylenebis(ethane-2,1-diyl))bis(2-methyl-4-oxoquinazoline-5,3(4H)-diyl))bis(piperidine-2,6-dione)] | 133 | 29 |  | CRBN Degradation ** (WB) (CRBN): No degradation
O=C1CCC(NC(=O)CCCC(=O)NC2CCC(=O)NC2=O)C(=O)N1 (stereo not shown) [XS01-095, N^1,N^5-Bis(2,6-dioxopiperidin-3-yl)glutaramide] | 104 | 84.6 |  | 
Cc1nc2cccc(NC(=O)CCCCCCC(=O)Nc3cccc4nc(C)n(C5CCC(=O)NC5=O)c(=O)c34)c2c(=O)n1C1CCC(=O)NC1=O (stereo not shown) [MA10-077, N1,N8-bis(3-(2,6-dioxopiperidin-3-yl)-2-methyl-4-oxo-3,4-dihydroquinazolin-5-yl)octanediamide] | 74.3 | 139 |  | 
